Measured values from PMC4239610, “A Peptide Derived from G0/G1 Switch Gene 2 Acts as Noncompetitive Inhibitor of Adipose Triglyceride Lipase” (The Journal of Biological Chemistry, 2014).

How the values were obtained:
[1] = cited from earlier work
Text: Adipose triglyceride lipase (ATGL) hydrolyzes TGs into diacylglycerols and FAs and is required for efficient intracellular lipolysis ([7]). Global inactivation of ATGL activity leads to massive TG accumulation in all tissues, including the heart of Atgl knock-out mice ([8]). Accordingly, patients with ATGL deficiency suffer from cardiac and skeletal muscle myopathy and require heart transplants at a relatively young age ([9]). However, genetic and small molecule-mediated inactivation of ATGL is also associated with beneficial effects on plasma lipid parameters and insulin sensitivity; Atgl-KO ... || Genetic disruption of Atgl results in severe heart defects due to massive TG accumulation in cardiac muscle ([8], [55]). Thus, the application of a synthetic, competitive ATGL inhibitor, such as Atglistatin, as a therapeutic tool appears limited. […] Th ...

[2] = system: WAT TG hydrolase activity derived from Atgl-KO mice; assay: TG hydrolase activity of WAT lysates of Atgl-KO mice; type: biochemical, mouse; conditions: overnight fasted, 1.4 μM hGW2052, 40 μM Atglistatin, Fig. 4A
Procedure: (§1) Adipose tissue samples from overnight fasted wild-type and Atgl-KO mice were washed in PBS (137 mM NaCl, 2.7 mM KCl, 10 mM Na2HPO4, 2 mM KH2PO4) containing 1 mM EDTA and homogenized on ice in sucrose solution (see above) using an Ultra Turrax (IKA, Staufen, Germany).
FIGURE 4.

[3] = system: TG hydrolase activity of WAT lysates from WT animals; assay: TG hydrolase activity of WAT lysates of overnight fasted WT mice; type: biochemical, mouse
Procedure: as §1
FIGURE 4.

ATGL = conditions: cited from earlier work
Text: Extensive research on the physiological role of ATGL has identified complex regulatory mechanisms for its activity on the transcriptional and post-translational level ([12], [13]). Direct protein-protein interaction of ATGL with the protein comparative gene identification 58 (CGI-58) increases ATGL activity up to 20-fold ([14]). Inhibition of ATGL due to direct interaction with the small, 103-amino acid protein G0/G1 switch gene 2 (G0S2) was discovered in 2010 and confirmed using human and murine proteins ([15][–][21]). The highest G0S2 expression is found in adipose tissues, but it is also pr ... || Activation of ATGL by CGI-58 is considered as fasting response upon β-adrenergic stimulation and phosphorylation of PKA ([12]). Recent studies have strengthened the role of G0S2 as the so-called master regulator of basal and stimulated lipolysis ([27]). mRNA levels of G0S2 respond strongly to hormonal stimuli, yet the dose-dependent inhibition of ATGL by G0S2 itself is reported to be independent of phosphorylation events ([18], [20], [21], [28], [29]). Thus, regulation of the expression levels of G0S2, and consequently the protein concentration, resembles a potent mean to regulate lipid mobili ... || Next, we investigated the specificity of the peptide hGW2052. ATGL and HSL together account for more than 95% of intracellular TG hydrolase activity in white adipose tissue (WAT) ([48]). For both enzymes, small molecule inhibitors are available. […] WAT lysates of WT and Atgl-KO mice were tested for TG hydrolase activity in the presence of Atglistatin, Hi 76–0079, and hGW2052. Addition of the ATGL inhibitors hGW2052 or Atglistatin redu ... || (+ 3 further places)

HSL = conditions: ref [10], [48], [49]; cited from earlier work
Procedure: Next, we investigated the specificity of the peptide hGW2052. ATGL and HSL together account for more than 95% of intracellular TG hydrolase activity in white adipose tissue (WAT) ([48]). For both enzymes, small molecule inhibitors are available. […] WAT lysates of WT and Atgl-KO mice were tested for TG hydrolase activity in the presence of Atglistatin, Hi 76–0079, and hGW2052. Addition of the ATGL inhibitors hGW2052 or Atglistatin redu ... || To evaluate the specificity of the inhibitory peptide for ATGL, we analyzed the effect of hGW2052 on the activities of phospholipases, intracellular lipases, and extracellular lipases. ATGL belongs to the patatin domain containing family of proteins (PNPLA). […] Although PNPLA family members show high sequence conservation within their common patatin domain, no effects on lysophospholipase activities of PNPLA6 or PNPLA7 could b ...

mATGL [4] = assay: TG hydrolase activity, E. coli expressed mATGL, CGI-58 activated, hG0S2 truncations (Fig. 1C-E); type: biochemical, mouse; conditions: mATGL E. coli extract (50 μg), 2.5 μg purified mCGI-58, 30 μg lysate of E. coli expressing hG0S2 variant, [3H]triolein, triplicates
Procedure: (§2) Protein concentrations were determined as described below.
(§3) FIGURE 1. Minimal sequence requirements of human G0S2 for ATGL inhibition. A, graphical representation of full-length and shortened versions of hG0S2, those capable of inhibiting ATGL activity are illustrated in black. The largely hydrophobic sequence stretch from Val-28 to Met-42 is depicted in light gray. B–E, activity assays were performed in the presence of CGI-58 as indicated by an asterisk (ATGL*). G0S2 and variants thereof were expressed in E. coli and added as cell lysates. Overexpressed mATGL from E. coli lysates was used for all assays with the exception of the assay shown in B. B, inhibition of TG hydrolase activity of mATGL containing COS-7 cell extracts by WT and C-terminally truncated hG0S2 variants. C, inhibition of TG hydrolase activity of mATGL by WT and C-terminally truncated hG0S2 variants. D, inhibition of TG hydrolase activity of mATGL by WT hG0S2 and variants with N-terminal deletions. E, effect of different N- and C-terminal truncations in hG0S2 on mATGL activity. The fusion tag smt3 is shown as control.

mATGL [5] = assay: TG hydrolase activity, COS-7 cell extracts containing mATGL, CGI-58 activated (Fig. 1B); type: biochemical, mouse; conditions: COS-7 cell extract with mATGL, hG0S2 variants as E. coli cell lysates (30 μg), [3H]triolein substrate, triplicates
Procedure: as §2
Cells were harvested 48 h after transfection. […] Protein concentrations were determined as described below.
as §3

[6] = single administration to mice, ref [10]

## CN(C)C(=O)Nc1cccc(-c2ccc(N(C)C)cc2)c1 [Atglistatin]
[1]; WT mice, ref [8], [10]
  plasma FA and TG concentrations: reduced plasma FA and TG concentrations
[1]; [6]
  TG accumulation in tissues: TG accumulation in liver but not the heart
  tissue accumulation of the inhibitor: accumulation of the inhibitor in liver and adipose tissues
[2]
  inhibition of WAT TG hydrolase activity, Atgl-KO (result in words): Neither hGW2052 nor Atglistatin inhibited WAT TG hydrolase activity derived from Atgl-KO mice
[3]; 40 μM Atglistatin, Fig. 4A
  reduction of TG hydrolase activity of WAT lysates: 49%
ATGL; Atglistatin elsewhere ref [10]
  IC50 for ATGL (in words): low micromolar range
ATGL; ref [10], [13]
  dependence of ATGL inhibition on CGI-58: independent of the presence of CGI-58
  mode of ATGL inhibition: inhibits ATGL in a competitive manner
ATGL; ref [10], [48], [49]
  specificity of inhibition (in words), ATGL: act as specific inhibitors for ATGL and HSL, respectively

## CN(C(=O)n1cncn1)c1ccccc1 [Hi 76-0079, N-methyl-phenyl carbamoyl triazole]
HSL
  specificity of inhibition (in words), HSL: act as specific inhibitors for ATGL and HSL, respectively
[3]; 25 μM Hi 76-0079, Fig. 4A
  reduction of TG hydrolase activity of WAT lysates: 67%

## CCCCCCCC/C=C\CCCCCCCC(=O)SCCNC(=O)CCNC(=O)[C@H](O)C(C)(C)COP(=O)(O)OP(=O)(O)OC[C@H]1O[C@@H](n2cnc3c(N)ncnc32)[C@H](O)[C@@H]1OP(=O)(O)O [oleoyl-CoA]
ATGL; ref [13]
  IC50: 33 µM

## hG0S2 Gly-30–Ala-52: N- and C-terminally truncated hG0S2, Gly-30–Ala-52 (GSVLALFGVVLGLMETVCSPFTA; UniProt P27469 30-52, looked up, fragment)
mATGL [4]
  inhibition of TG hydrolase activity (result in words): had lost all inhibitory activity

## hG0S2 Leu-10–Ala-52: N- and C-terminally truncated hG0S2, Leu-10–Ala-52 (LAKEMMAQKRKGKMVKLYVLGSVLALFGVVLGLMETVCSPFTA; UniProt P27469 10-52, looked up, fragment)
mATGL [4]
  inhibition of TG hydrolase activity (result in words): fully retained their activity to inhibit ATGL

## hG0S2 Lys-20–Met-43: N- and C-terminally truncated hG0S2, Lys-20–Met-43 (KGKMVKLYVLGSVLALFGVVLGLM; UniProt P27469 20-43, looked up, fragment)
mATGL [4]
  inhibition of TG hydrolase activity (result in words): neither hG0S2 Tyr-27–Ala-52 nor hG0S2 Lys-20–Met-43 exhibited full inhibitory capacity
mATGL [4]; listed as Lys-20–Met-43
  inhibition of TG hydrolase activity (result in words): did not result in G0S2 variants that were able to inhibit ATGL efficiently

## hG0S2 truncated at residue Leu-40: hG0S2 truncated at residue Leu-40 (C-terminal truncation) (METVQELIPLAKEMMAQKRKGKMVKLYVLGSVLALFGVVL; UniProt P27469 1-40, looked up, fragment)
mATGL [5]
  inhibition of TG hydrolase activity (result in words): Inhibition was significantly reduced

## hG0S2_1–43: C-terminally truncated hG0S2 variant Met-1–Met-43 (METVQELIPLAKEMMAQKRKGKMVKLYVLGSVLALFGVVLGLM; UniProt P27469 1-43, looked up, fragment)
mATGL [4]
  inhibition of TG hydrolase activity (result in words): still exerts the full inhibitory effect on ATGL
mATGL [4]; listed as Met-1–Met-43
  inhibition of TG hydrolase activity (result in words): fully able to inhibit ATGL
